Measurements published in US20240415878A1, “Compositions and Methods for Modulating Mitochondrial Function” (Board of Regents, The University of Texas System, priority 2021, published 2024).

Legend:
HIF-1α [1] = assay: HIF-1α stabilization in COS-7 cells; format: cell-based
Excerpt: HIF-1α is stabilized in Mrs2−/− mice. To examine the intrinsic role of Mrs2, Mrs2^−/− mice were challenged to LPS-induced inflammatory response. It was noticed that there was a barely detectable HIF-1α stabilization in control but a significant HIF-1α protein accumulation following LPS stimulation in Mrs2^−/− hepatocytes (Daw et al., 2020). […] It was envisioned that loss of Mrs2 in hepatocyte mitochondria might control metabolite fluxes that regulates HIF-1α stability under normoxic conditions. HIF-1α is the most commonly studied transcription factor that responds to oxygen tension and its stabilization controls numerous metabolic cascades, including glycolysis and oxidative phosphorylation (Kaelin and Ratcliffe, 2008; Lum et al., 2007; Semenza, 2013). A targeted metabolite screen was conducted to identify whether these metabolites potentially altered in Mrs2^−/− control HIF-1α stabilization. WT hepatocytes were treated with the PHD inhibitor FG-4952 for 6 hours in the presence or absence of metabolites (Buckley et al., 2012). […] Next it was explored whether citric acid mediated HIF-1α destabilization is a hydroxylation dependent mechanism by reconstitution of hydroxylation-dead mutant HIF-1α in COS-7 cells (Yan et al., 2007). […] Next tested the potency of citric acid and sodium citrate was tested. Hepatocytes isolated from WT or Mrs2^−/− mice were treated for 6 hours. […]

HIF-1α [2] = assay: HIF-1α stabilization in human kidney cell line (HK-2); format: cell-based; settings: HK-2 treated with CoCl2, metabolites 6 hours
HIF-1α [3] = system: HIF-1α
Excerpt: HIF-1α is stabilized in Mrs2−/− mice. To examine the intrinsic role of Mrs2, Mrs2^−/− mice were challenged to LPS-induced inflammatory response. It was noticed that there was a barely detectable HIF-1α stabilization in control but a significant HIF-1α protein accumulation following LPS stimulation in Mrs2^−/− hepatocytes (Daw et al., 2020). […] It was envisioned that loss of Mrs2 in hepatocyte mitochondria might control metabolite fluxes that regulates HIF-1α stability under normoxic conditions. HIF-1α is the most commonly studied transcription factor that responds to oxygen tension and its stabilization controls numerous metabolic cascades, including glycolysis and oxidative phosphorylation (Kaelin and Ratcliffe, 2008; Lum et al., 2007; Semenza, 2013). A targeted metabolite screen was conducted to identify whether these metabolites potentially altered in Mrs2^−/− control HIF-1α stabilization. WT hepatocytes were treated with the PHD inhibitor FG-4952 for 6 hours in the presence or absence of metabolites (Buckley et al., 2012). […] Next it was explored whether citric acid mediated HIF-1α destabilization is a hydroxylation dependent mechanism by reconstitution of hydroxylation-dead mutant HIF-1α in COS-7 cells (Yan et al., 2007). […] Next tested the potency of citric acid and sodium citrate was tested. Hepatocytes isolated from WT or Mrs2^−/− mice were treated for 6 hours. HIF-1α stabilization was less affected by di- or tri-sodium citrate than by citric acid (FIG. 9G). […] The citric acid-mediated HIF-1α destabilization was intact in multiple chemical modalities (FIG. 9H) and the intracellular chelation of Mg^2+ ions suppressed FG-4952-induced HIF-1α stabilization (FIG. 9I). […] Furthermore, COS-7 cells were more sensitive to the HIF-1α stabilizing effect compared to hepatocytes. […] Next HIF-1α abundance was tested in liver tissues harvested from dietary cohorts. HIF-1α protein expression/stabilization was prominent in both Mrs2^−/− and Mrs2^−/− WD, whereas HIF-1α protein was nearly completely absent in WT WD (FIG. 9M). This supports the elevation of HIF-1α protein level as a key mechanism driving transcription changes in Mrs2^−/− WD livers.
Immunoblotting. Crushed tissues were homogenized in lysis buffer (ThermoFisher) on ice for one minute (20-30 strokes) using an automatic Dounce homogenizer set to 2000 RPM. Whole cell lysate was prepared in lysis buffer (Abcam) using 3 sets of 3-second sonication (power level 3) intervals on ice. Protein concentration was estimated using Pierce BCA assay kit and samples were prepared and heated for 90° C. for 5 minutes. Equal amounts of protein were loaded and separated on 4%-12% Bis-Tris polyacrylamide gel (Thermo Fisher Scientific), transferred to a PVDF membrane, blocked for 1-2 h using 5% fat free skim milk, washed and finally, probed with corresponding antibodies as specified below. Antibodies were from Cell Signaling Technology (HIF-1α and Hydroxy HIF-1α dilution 1:3000, MCU dilution 1.5000, MICU1 dilution 1:3000), Abcam Abcam (CPT-1a, CPT-2, OXPHOS cocktail dilution 1:3000), ZYMED Laboratories (β-actin; dilution 1:1,000), and Amersham (secondary antibodies conjugated with peroxidase). Development was done using X-ray film using a series of timed exposures and Image J was used for densitometric analysis on scanned film images.

Mrs2 [4] = target: T1, Mrs2 (Mus musculus, UniProt Q5NCE8); assay: Mrs2-mediated mMg2+ uptake in digitonin permeabilized hepatocytes (Mag-Green, extramitochondrial Mg2+ clearance); format: cell-based, murine; settings: permeabilized cell system
T1 construct: endogenous in cells; host or cells: primary murine hepatocytes (C57BL/6J mice)
T1 sequence (Q5NCE8 54-434): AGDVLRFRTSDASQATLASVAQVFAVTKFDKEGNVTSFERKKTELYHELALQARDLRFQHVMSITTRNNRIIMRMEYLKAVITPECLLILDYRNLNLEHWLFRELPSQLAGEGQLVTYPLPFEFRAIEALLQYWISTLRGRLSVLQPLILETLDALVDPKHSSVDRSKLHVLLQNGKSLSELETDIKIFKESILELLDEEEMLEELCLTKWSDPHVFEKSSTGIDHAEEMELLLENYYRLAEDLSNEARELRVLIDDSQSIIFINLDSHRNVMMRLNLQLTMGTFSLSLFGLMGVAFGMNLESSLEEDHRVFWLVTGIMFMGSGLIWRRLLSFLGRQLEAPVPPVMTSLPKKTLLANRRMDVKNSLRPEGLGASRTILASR
Protocol: (§1) Bacterial CorA forms a pentameric complex that selectively drives Mg2+ uptake in an electrogenic manner. […] Mrs2 is the eukaryotic homologue of CorA and contains two transmembrane domains with a well-conserved F/Y-G-M-N motif; therefore, CorA blockers were tested to determine if they alter Mrs2-mediated mMg^2+ uptake (Moomaw and Maguire, 2008). Digitonin permeabilized hepatocytes were utilized to measure the inhibitory effect and determine its IC50. Permeabilized cells were treated with CPACC followed by a 1 mM bolus of MgCl2 (FIG. 10B). A 1 mM Mg^2+ bolus was added after baseline recording, and the extramitochondrial Mg^2+ clearance was used as a read-out for Mrs2-mediated mMg^2+ uptake using Mag-Green as a Mg^2+ indicator. […] We next investigated Mrs2 inhibition in intact hepatocytes loaded with Mag-Green-AM. […] Next CPACC was examined to determine if it had any effect on MCU-mediated mCa^2+ uptake in permeabilized cells. […] The availability of the compound to intact cells was measured using graphite furnace atomic absorption spectroscopy (GFAAS) and bicinchoninic acid in parallel.
Spectrofluorimetric measurement of mitochondrial Mg^2+ and Ca^2+ dynamics and citrate mediated MagGreen fluorescence quenching. Fluorescence measurements were conducted in a multiwavelength excitation dual wavelength emission spectrofluorometer (Delta RAM, PTI, HORIBA). […]

Mrs2 [5] = target: T1, Mrs2; assay: Mrs2 inhibition in intact hepatocytes loaded with Mag-Green-AM, confocal, L-lactate stimulation; format: cell-based, murine
Protocol: as §1, with “parallel. […] Encouraged by the potent inhibitory effect of CPACC and cellular permeability, we next measured the cytotoxicity of CPACC in cells. […]” for “parallel.”
Evaluation of dose dependent Mrs2 inhibition by confocal live cell imaging system. […] Data was quantified using Leica Application Suite X.

| Structure (SMILES) | constitutively stabilized (hydroxylation-dead) HIF-1α mutant (HIF-1α [1]) | FG-4592 dependent HIF-1α stabilization (HIF-1α [1]; 10 mM) | HIF-1α destabilizing activity (HIF-1α [2]) | response of hepatocytes from Mrs2^−/− mice to the destabilizing effect (HIF-1α [3]) | HIF-1α destabilizing effect in homogenate (HIF-1α [3]; FG-4592 treated WT hepatocyte homogenate) | time course of HIF-1α destabilization (HIF-1α [3]; FG-4592 treated hepatocytes) | effect on HIF-1α stabilized by PHD inhibitor (HIF-1α [3]; WT hepatocytes, FG-4952, 6 hours) | concentration at which HIF-1α destabilization was observed (HIF-1α [3]; WT hepatocytes, PHD inhibitor, 6 hours) | inhibitory effect on Mrs2 activity (Mrs2 [4]) | effect on Mrs2 in intact hepatocytes (Mrs2 [5]) |
| --- | --- | --- | --- | --- | --- | --- | --- | --- | --- | --- |
| O=C(O)CC(O)(CC(=O)O)C(=O)O [citric acid] | unaffected | completely blunted | replicates the observations in hepatocytes | partially resistant | partly maintained | very rapid and robust | destabilized HIF-1α | ≥ 6 mM |  |  |
| N.N.N.N.N.N.[Cl-].[Cl-].[Cl-].[Co+3] [cobalt(III)hexaammine, Hexaamminecobalt (III) chloride, reference compound] |  |  |  |  |  |  |  |  | limited inhibition | absent |
